Several values for one entry are separate records, joined by “and”; a condition that tells them apart may be missing. Equal values may be shown once. Read-outs that look alike come from different tables or passages of the source.
Legend:
[1] = biological target: T1, PRDM9 (amino acids: 195–415) (Homo sapiens, UniProt Q9NQV7); experiment: PRDM9 methyltransferase activity assay (3H-SAM scintillation proximity assay); assay type: biochemical; conditions: for activity at 100 µM: 100 µM compound
T1 construct: PRDM9 (amino acids: 195–415)
T1 sequence (Q9NQV7 195-415): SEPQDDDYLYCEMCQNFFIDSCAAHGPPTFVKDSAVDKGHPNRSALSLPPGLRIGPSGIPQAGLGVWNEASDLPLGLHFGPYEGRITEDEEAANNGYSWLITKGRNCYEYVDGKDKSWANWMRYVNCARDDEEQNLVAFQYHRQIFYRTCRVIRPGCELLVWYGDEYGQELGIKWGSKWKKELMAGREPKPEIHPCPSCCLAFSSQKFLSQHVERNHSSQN
Protocol: Methyltransferase activity assays for PRDM9 (amino acids: 195–415) were performed by monitoring the incorporation of tritium-labeled methyl group from ^3H-SAM to H3 (1–25) peptide using scintillation proximity assay (SPA). The enzymatic reactions were performed at 23 °C with 30 min incubation in 20 mM Tris-HCl (pH 7.5), 5 mM DTT, 0.01% Triton X-100 and 1% DMSO containing 71 μM of SAM (5 μM of ^3H-SAM), 4 μM of biotinylated H3 (1–25) peptide and 5 nM of PRDM9. For PRDM7, reactions were performed at 23 °C with 90 min incubation in 20 mM BTP pH 9.0, 5 mM DTT, 0.01% Triton X-100 and 1% DMSO containing 900 μM of SAM (5 μM of ^3H-SAM), 4 μM of biotinylated H3 (1–25) peptide and 100 nM of enzyme. […] To stop the reactions, 10 μL of 7.5 M guanidine hydrochloride was added to 10 μL of reaction mixture, followed by 60 μL of buffer (20 mM Tris, pH 8.0), mixed, and transferred to a 384-well streptavidin coated Flash-plate. After mixing, the mixtures in Flash-plate were incubated for 2 h, and the CPM counts were measured using TopCount plate reader. All enzymatic reactions were performed in triplicate, and IC50 values were determined by fitting the data to Four Parameter Logistic equation using the GraphPad Prism software.

[2] = tested on: CAL851; experiment: CelltiterGlo viability cell assay; assay type: cell-based; conditions: up to 30 μM; days 3 and 6; Prdm9 expressing line
Protocol: (§1) Supplementary Figure 13. […] Viability of
(§2) (a) Multiple Myeloma lines and (b) Breast Cancer cell lines following 3 or 6 days treatment with […]
(§3) manufacturer’s instructions as described in the Supplementary methods. Data are normalized to DMSO control. N=3 biological replicates, +/- SEM. Source data are provided as a Source Data […]
(§4) CelltiterGlo viability cell assay
(§5) Cells were seeded in 96 well plates at per-well densities of 10000 (MDA-MB436, ATCC-HTB130), 15000 (8226, kind gift from Rodger Tiedemann, Princess Margaret Cancer Centre), […]
(§6) kind gift from Rodger Tiedemann, Princess Margaret Cancer Centre) and 50000 (CAL851, kind gift from Mathieu Lupien, Princess Margaret Cancer Centre) and were treated at increasing concentrations of compounds ranging from 0.01 μM to 30 μM and assessed for proliferation using CelltiterGlo (Promega) following manufacturer’s instructions, as readout on days 3 and 6 as indicated. All cell lines were mycoplasma negative, as determined by MycoAlert™ Mycoplasma Detection Kit(Lonza). […]

[3] = tested on: HCC1143; experiment: CelltiterGlo viability cell assay; assay type: cell-based; conditions: up to 30 μM; days 3 and 6; matched control line
Protocol: as §1, §2, §3, §4, §5, §6

[4] = tested on: RPMI-8226; experiment: CelltiterGlo viability cell assay; assay type: cell-based; conditions: up to 30 μM; days 3 and 6; matched control line
Protocol: as §1, §2, §3, §4, §5, §6

With `COc1cc(OC)cc(-c2noc(N3CCN(C)C4(CCN(c5ccccc5)CC4)C3)n2)c1` [MRK-740-NC] the “PRDM9 inhibition (in words)” value [1] was “inactive control compound”, the “PRDM9-Activity %, single experiments” value ([1]; 0.00610352 µM compound, 0.00610352 µM) was 111.779% and 111.39% and the activity at 0.00610352 µM ([1]; 0.00610352 µM compound, n=6 MRK-740, n=3 MRK-740-NC, read-out: PRDM9-Activity %, Average) was 110%. The activity at 0.00610352 µM ([1]; 0.00610352 µM compound, read-out: PRDM9-Activity %, single experiments) was 108%, the “PRDM9-Activity %, single experiments” value ([1]; 0.012207 µM compound, 0.012207 µM) was 116.346% and 113.283% and the activity at 0.012207 µM ([1]; 0.012207 µM compound, n=6 MRK-740, n=3 MRK-740-NC, read-out: PRDM9-Activity %, Average) was 115%. The activity at 0.012207 µM ([1]; 0.012207 µM compound, read-out: PRDM9-Activity %, single experiments) was 116%, the “PRDM9-Activity %, single experiments” value ([1]; 0.0244141 µM compound, 0.0244141 µM) was 104.873% and 111.39% and the activity at 0.0244141 µM ([1]; 0.0244141 µM compound, n=6 MRK-740, n=3 MRK-740-NC, read-out: PRDM9-Activity %, Average) was 111%. For the same compound, the activity at 0.0244141 µM ([1]; 0.0244141 µM compound, read-out: PRDM9-Activity %, single experiments) was 116%, the “PRDM9-Activity %, single experiments” value ([1]; 0.0488281 µM compound, 0.0488281 µM) was 125.258% and 118.268% and the activity at 0.0488281 µM ([1]; 0.0488281 µM compound, n=6 MRK-740, n=3 MRK-740-NC, read-out: PRDM9-Activity %, Average) was 122%. For the same compound, the activity at 0.0488281 µM ([1]; 0.0488281 µM compound, read-out: PRDM9-Activity %, single experiments) was 121%, the “PRDM9-Activity %, single experiments” value ([1]; 0.0976562 µM compound, 0.0976562 µM) was 107.407% and 111.807% and the activity at 0.0976562 µM ([1]; 0.0976562 µM compound, n=6 MRK-740, n=3 MRK-740-NC, read-out: PRDM9-Activity %, Average) was 109%. The activity at 0.0976562 µM ([1]; 0.0976562 µM compound, read-out: PRDM9-Activity %, single experiments) was 108%, the “PRDM9-Activity %, single experiments” value ([1]; 0.195312 µM compound, 0.195312 µM) was 118.212% and 116.151% and the activity at 0.195312 µM ([1]; 0.195312 µM compound, n=6 MRK-740, n=3 MRK-740-NC, read-out: PRDM9-Activity %, Average) was 119%. The activity at 0.195312 µM ([1]; 0.195312 µM compound, read-out: PRDM9-Activity %, single experiments) was 122%, the “PRDM9-Activity %, single experiments” value ([1]; 0.390625 µM compound, 0.390625 µM) was 107.574% and 115.149% and the activity at 0.390625 µM ([1]; 0.390625 µM compound, n=6 MRK-740, n=3 MRK-740-NC, read-out: PRDM9-Activity %, Average) was 111%. For the same compound, the activity at 0.390625 µM ([1]; 0.390625 µM compound, read-out: PRDM9-Activity %, single experiments) was 112%, the “PRDM9-Activity %, single experiments” value ([1]; 0.78125 µM compound, 0.78125 µM) was 116.708% and 121.749% and the activity at 0.78125 µM ([1]; 0.78125 µM compound, n=6 MRK-740, n=3 MRK-740-NC, read-out: PRDM9-Activity %, Average) was 119%. For the same compound, the activity at 0.78125 µM ([1]; 0.78125 µM compound, read-out: PRDM9-Activity %, single experiments) was 120%, the “PRDM9-Activity %, single experiments” value ([1]; 1.5625 µM compound, 1.5625 µM) was 114.731% and 115.595% and the activity at 1.5625 µM ([1]; 1.5625 µM compound, n=6 MRK-740, n=3 MRK-740-NC, read-out: PRDM9-Activity %, Average) was 116%. For the same compound, the activity at 1.5625 µM ([1]; 1.5625 µM compound, read-out: PRDM9-Activity %, single experiments) was 117%, the “PRDM9-Activity %, single experiments” value ([1]; 3.125 µM compound, 3.125 µM) was 124.004% and 125.898% and the activity at 3.125 µM ([1]; 3.125 µM compound, n=6 MRK-740, n=3 MRK-740-NC, read-out: PRDM9-Activity %, Average) was 123%. For the same compound, the activity at 3.125 µM ([1]; 3.125 µM compound, read-out: PRDM9-Activity %, single experiments) was 120%, the “PRDM9-Activity %, single experiments” value ([1]; 6.25 µM compound, 6.25 µM) was 105.486% and 104.623% and the activity at 6.25 µM ([1]; 6.25 µM compound, n=6 MRK-740, n=3 MRK-740-NC, read-out: PRDM9-Activity %, Average) was 105%. The activity at 6.25 µM ([1]; 6.25 µM compound, read-out: PRDM9-Activity %, single experiments) was 105%, the “PRDM9-Activity %, single experiments” value ([1]; 12.5 µM compound, 12.5 µM) was 112.476% and 115.762% and the activity at 12.5 µM ([1]; 12.5 µM compound, n=6 MRK-740, n=3 MRK-740-NC, read-out: PRDM9-Activity %, Average) was 114%. The activity at 12.5 µM ([1]; 12.5 µM compound, read-out: PRDM9-Activity %, single experiments) was 114%, the “PRDM9-Activity %, single experiments” value ([1]; 25 µM compound, 25 µM) was 98.6355% and 87.9699% and the activity at 25 µM ([1]; 25 µM compound, n=6 MRK-740, n=3 MRK-740-NC, read-out: PRDM9-Activity %, Average) was 94.3%. For the same compound, the activity at 25 µM ([1]; 25 µM compound, read-out: PRDM9-Activity %, single experiments) was 96.2%, the “PRDM9-Activity %, single experiments” value ([1]; 50 µM compound, 50 µM) was 103.397% and 100.975% and the activity at 50 µM ([1]; 50 µM compound, n=6 MRK-740, n=3 MRK-740-NC, read-out: PRDM9-Activity %, Average) was 102%. For the same compound, the activity at 50 µM ([1]; 50 µM compound, read-out: PRDM9-Activity %, single experiments) was 101%, the activity at 100 µM ([1]; n=3, read-out: PRDM9-Activity %, Average) was 80.5% and the activity at 100 µM ([1]; read-out: PRDM9-Activity %, single experiments) was 82.7%. The “Effect on proliferation (in words)” value [2] was “did not have any significant effect”, the “Effect on proliferation (in words)” value [3] was “did not have any significant effect” and the “Effect on proliferation (in words)” value [4] was “did not have any significant effect”.

Source: article PMC6917776, “Discovery of a chemical probe for PRDM9” (Nature Communications, 2019)
